# Measured values as given in patent US12410171B2, “Tropomyosin receptor kinase (TRK) degradation compounds and methods of use” (Cullgen (Shanghai), Inc., priority 2020, dated 2025).
# Read-outs that look alike come from different tables or passages of the source.
# Experiments:
# [1] = system: KM12 cells; experiment: KM12 cell viability (CellTiter-Glo); format: cell-based; details: Homo sapiens
# How it was run: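 Three-day exposure of KM12 cells (5000/well, RPMI 1640 with 10% FBS, 37 °C, 5% CO2) to compound dilution series, 3-fold over 8 or 11 points (top 1000 nM in the 8-point format) or 2-fold over 12. CellTiter-Glo readout, with IC50 fitted by nonlinear least-squares regression.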
# [2] = target: T1, TPM3-TRKA fusion protein (Homo sapiens, UniProt P04629); experiment: TPM3-TRKA fusion protein levels in KM12 cells (Western blot); format: cell-based; details: read-out: Degradation (at 10 nM)
# T1 construct: The resulted chimeric proteins always retain the kinase domain of TRK proteins; TPM3 (fusion partner, N-terminal part of tropomyosin alpha-3, P06753); endogenous in cells; host or cells: KM12 colon cancer cells; the other entry of the earlier key: TPM3 (P06753, Tropomyosin alpha-3 chain)
# How it was run: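 TPM3-TRKA levels were assessed by Western blot with chemiluminescent detection and band densitometry, after SDS-PAGE of BCA-normalized RIPA lysates. Before lysis, KM12 cells received DMSO, compounds or matched control compounds at concentrations including 0.1, 1, 10 and 100 nM and 0.4–30 nM. Exposures lasted 4 h, 8–16 h or 16 h.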
# [3] = 72 h, KM12 cell viability, CellTiter-Glo, three days treatment, read-out: IC50
# [4] = 16 h, TPM3-TRKA degradation in KM12 cells at 10 nM compound, category of percentage degradation
# [5] = 72 h, KM12 cell viability, 11-point 3-fold serial dilution, 3 days, CellTiter-Glo, read-out: IC50
# [6] = 16 h, TPM3-TRKA degradation in KM12 cells at 10 nM
# T1 sequence (P04629 with tags, fused parts or gaps): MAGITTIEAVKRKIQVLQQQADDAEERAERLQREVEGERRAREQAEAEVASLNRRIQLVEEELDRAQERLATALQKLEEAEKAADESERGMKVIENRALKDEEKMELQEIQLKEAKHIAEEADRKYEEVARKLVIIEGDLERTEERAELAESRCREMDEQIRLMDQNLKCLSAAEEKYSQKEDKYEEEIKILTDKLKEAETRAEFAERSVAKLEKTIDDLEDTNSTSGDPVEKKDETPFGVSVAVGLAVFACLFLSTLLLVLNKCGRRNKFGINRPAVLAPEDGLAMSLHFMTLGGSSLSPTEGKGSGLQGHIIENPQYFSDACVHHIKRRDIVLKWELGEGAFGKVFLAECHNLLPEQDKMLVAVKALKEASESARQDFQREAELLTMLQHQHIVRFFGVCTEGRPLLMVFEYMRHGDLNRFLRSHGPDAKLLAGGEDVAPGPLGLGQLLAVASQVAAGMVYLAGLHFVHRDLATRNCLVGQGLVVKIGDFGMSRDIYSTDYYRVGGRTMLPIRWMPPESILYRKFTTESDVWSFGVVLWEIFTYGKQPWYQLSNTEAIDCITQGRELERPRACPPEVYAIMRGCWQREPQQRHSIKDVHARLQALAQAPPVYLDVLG
SMILES,"percent degradation of TPM3-TRKA protein at 0.01 µM [2, 4] [%]","IC50 [1, 3] [nM]",other results
"O=C1CCC(N2C(=O)c3ccc(N4CC(NC5CCN(c6cccc(-c7cnc8ccc(N9CCC[C@@H]9c9cccc(F)c9)nn78)n6)CC5)C4)cc3C2=O)C(=O)N1 (stereo partly drawn) [TR-288, 2-(2,6-dioxopiperidin-3-yl)-5-(3-((1-(6-(6-((R)-2-(3-fluorophenyl)pyrrolidin-1-yl)imidazo[1,2-b]pyridazin-3-yl)pyridin-2-yl)piperidin-4-yl)amino)azetidin-1-yl)isoindoline-1,3-dione]",–,9.2,"percent degradation of TPM3-TRKA protein at 0.01 µM ([2]; KM12, 16 h): > 80%"
"O=C1CCC(N2C(=O)c3ccc(N4CCC(N5CCN(c6ccc(C(=O)Nc7n[nH]c8ccc(Cc9cc(F)cc(F)c9)cc78)c(NC7CCOCC7)c6)CC5)CC4)cc3C2=O)C(=O)N1 (stereo not shown) [TR-280, N-(5-(3,5-difluorobenzyl)-1H-indazol-3-yl)-4-(4-(1-(2-(2,6-dioxopiperidin-3-yl)-1,3-dioxoisoindolin-5-yl)piperidin-4-yl)piperazin-1-yl)-2-((tetrahydro-2H-pyran-4-yl)amino)benzamide]",–,–,"IC50 ([1]; KM12, 72 h): 4.3 nM; percent degradation of TPM3-TRKA protein at 0.01 µM ([2]; KM12, 16 h): > 80%"
"COc1ccc(COc2ccc(Cn3c(N)nc4cc(-c5cnn(CC(=O)NCCCCCCCCNc6cccc7c6C(=O)N(C6CCC(=O)NC6=O)C7=O)c5)cnc43)cc2OC)cc1 (stereo not shown) [CPD-501, 2-(4-(2-amino-3-(3-methoxy-4-((4-methoxybenzyl)oxy)benzyl)-3H-imidazo[4,5-b]pyridin-6-yl)-1H-pyrazol-1-yl)-N-(8-((2-(2,6-dioxopiperidin-3-yl)-1,3-dioxoisoindolin-4-yl)amino)octyl)acetamide]",–,–,"IC50 [1, 5]: 13.2 nM; percent degradation of TPM3-TRKA protein at 0.01 µM [2, 6]: > 80%"
"O=C1CCC(N2C(=O)c3ccc(CN4CC(N5CCN(c6ccc(C(=O)Nc7n[nH]c8ccc(Cc9cc(F)cc(F)c9)cc78)c(NC7CCOCC7)c6)CC5)C4)cc3C2=O)C(=O)N1 (stereo not shown) [TR-254, N-(5-(3,5-difluorobenzyl)-1H-indazol-3-yl)-4-(4-(1-((2-(2,6-dioxopiperidin-3-yl)-1,3-dioxoisoindolin-5-yl)methyl)azetidin-3-yl)piperazin-1-yl)-2-((tetrahydro-2H-pyran-4-yl)amino)benzamide]",–,–,"IC50 ([1]; KM12, 72 h): 20.3 nM; percent degradation of TPM3-TRKA protein at 0.01 µM ([2]; KM12, 16 h): > 80%"
"Cc1ncsc1-c1ccc(CNC(=O)[C@@H]2C[C@@H](O)CN2C(=O)[C@@H](NC(=O)CCCCCCCCC(=O)N2CCN(Cc3ccc(NC(=O)c4coc(N5CCOCC5)n4)c(N4CCC(C(N)=O)CC4)c3)CC2)C(C)(C)C)cc1 [CPD-493, N-(2-(4-carbamoylpiperidin-1-yl)-4-((4-(10-(((S)-1-((2S,4R)-4-hydroxy-2-((4-(4-methylthiazol-5-yl)benzyl)carbamoyl)pyrrolidin-1-yl)-3,3-dimethyl-1-oxobutan-2-yl)amino)-10-oxodecanoyl)piperazin-1-yl)methyl)phenyl)-2-morpholinooxazole-4-carboxamide]",–,–,"IC50 [1, 5]: 46 nM; percent degradation of TPM3-TRKA protein at 0.01 µM [2, 6]: 50 to 80%"
"O=C1CCC(n2c(=O)n(CCN3CCN(c4ccc(C(=O)Nc5n[nH]c6ccc(Cc7cc(F)cc(F)c7)cc56)c(NC5CCOCC5)c4)CC3)c3ccccc32)C(=O)N1 (stereo not drawn) [TR-310, N—(S-(3,5-Difluorobenzyl)-1H-indazol-3-yl)-4-(4-(2-(3-(2,6-dioxopiperidin-3-yl)-2-oxo-2,3-dihydro-1H-benzo[d]imidazol-1-yl)ethyl)piperazin-1-yl)-2-((tetrahydro-2H-pyran-4-yl)amino)benzamide]",–,12.5,–
"NC(=O)C1CCN(c2cc(CN3CCN(C(=O)CCOCCOCCOCCOCCOCCNc4cccc5c4C(=O)N(C4CCC(=O)NC4=O)C5=O)CC3)ccc2NC(=O)c2coc(N3CCOCC3)n2)CC1 (stereo not shown) [CPD-489, N-(2-(4-carbamoylpiperidin-1-yl)-4-((4-(1-((2-(2,6-dioxopiperidin-3-yl)-1,3-dioxoisoindolin-4-yl)amino)-3,6,9,12,15-pentaoxaoctadecan-18-oyl)piperazin-1-yl)methyl)phenyl)-2-morpholinooxazole-4-carboxamide]",–,–,"IC50 [1, 5]: 141 nM"
O=C1CCC(N2C(=O)c3ccc(N4CC5(CN(CC6CCN(c7ccc(C(=O)Nc8n[nH]c9ccc(Cc%10cc(F)cc(F)c%10)cc89)c(NC8CCOCC8)c7)CC6)C5)C4)cc3C2=O)C(=O)N1 (stereo not shown) [TR-329],–,> 500,–
"Cc1ncsc1-c1ccc(CNC(=O)[C@@H]2C[C@@H](O)CN2C(=O)[C@@H](NC(=O)CCOCCOCCOCCOCCC(=O)N2CCN(Cc3ccc(NC(=O)c4coc(N5CCOCC5)n4)c(N4CCC(C(N)=O)CC4)c3)CC2)C(C)(C)C)cc1 [CPD-497, N-(2-(4-carbamoylpiperidin-1-yl)-4-((4-((S)-18-((2S,4R)-4-hydroxy-2-((4-(4-methylthiazol-5-yl)benzyl)carbamooyl)pyrrolidine-1-carbonyl)-19,19-dimethyl-16-oxo-4,7,10,13-tetraoxa-17-azaicosanoyl)piperazin-1-yl)methyl)phenyl)-2-morpholinooxazole-4-carboxamide]",–,–,"IC50 [1, 5]: > 10000 nM"
"O=C1CCC(N2C(=O)c3ccc(N4CC(CN5CCC(n6ccc(-c7cnc8ccc(N9CCC[C@@H]9c9cccc(F)c9)nn78)c6)CC5)C4)cc3C2=O)C(=O)N1 (stereo partly drawn) [TR-222, 2-(2,6-Dioxopiperidin-3-yl)-5-(3-((4-(3-(6-((R)-2-(3-fluorophenyl)pyrrolidin-1-yl)imidazo[1,2-b]pyridazin-3-yl)-1H-pyrrol-1-yl)piperidin-1-yl)methyl)azetidin-1-yl)isoindoline-1,3-dione]",–,> 500,–

# Second part, led by results:
"percent degradation of TPM3-TRKA protein at 0.01 µM [2, 4] [%]",SMILES,"IC50 [1, 3] [nM]",other results
> 80,"O=C1CCC(N2C(=O)c3ccc(C4CN(CC5CCN(c6ccc(C(=O)Nc7n[nH]c8ccc(Cc9cc(F)cc(F)c9)cc78)c(NC7CCOCC7)c6)CC5)C4)cc3C2=O)C(=O)N1 (stereo not shown) [TR-328, N-(5-(3,5-Difluorobenzyl)-1H-indazol-3-yl)-4-(4-((3˜ (2-(2,6-dioxopiperidin-3-yl)-1,3-dioxoisoindolin-5-yl)azetidin-1-yl)methyl)piperidin-1-yl)-2-((tetrahydro-2/7-pyran-4-yl)amino)benzamide]",35.9,–
> 80,"O=C1CCC(N2C(=O)c3ccc(N4CCC(CN5CCN(c6ccc(C(=O)Nc7n[nH]c8ccc(Cc9cc(F)cc(F)c9)cc78)c(NC7CCOCC7)c6)CC5)CC4)cc3C2=O)C(=O)N1 (stereo not shown) [TR-271, N-(5-(3,5-Difluorobenzyl)-1H-indazol-3-yl)-4-(4-((1-(2-(2,6-dioxopiperidin-3-yl)-1,3-dioxoisoindolin-5-yl)piperidin-4-yl)methyl)piperazin-1-yl)-2-((tetrahydro-2H-pyran-4-yl)amino)benzamide]",22,–
50 to 80,O=C1CCC(n2nnc3cccc(N4CC(CCN5CCN(c6cccc(-c7cnc8ccc(N9CCC[C@@H]9c9cccc(F)c9)nn78)n6)CC5)C4)c3c2=O)C(=O)N1 (stereo partly shown) [TR-297],39,–
> 80,"O=C1CCC(N2C(=O)c3ccc(NCC(=O)N4CCN(c5ccc(C(=O)Nc6n[nH]c7ccc(Cc8cc(F)cc(F)c8)cc67)c(NCCF)c5)CC4)cc3C2=O)C(=O)N1 (stereo not shown) [TR-266, N-(5-(3,5-difluorobenzyl)-1H-indazol-3-yl)-4-(4˜ ((2-(2,6-dioxopiperidin-3-yl)-1,3-dioxoisoindolin-5-yl)glycyl)piperazin-1-yl)-2-((2-fluoroethyl)amino)benzamide]",7.2,–
> 80,"O=C1CCC(N2C(=O)c3ccc(NC(=O)CN4CCN(c5ccc(C(=O)Nc6n[nH]c7ccc(Cc8cc(F)cc(F)c8)cc67)c(NC6CCOCC6)c5)CC4)cc3C2=O)C(=O)N1 (stereo not shown) [TR-273, N-(5-(3,5-Difluorobenzyl)-1H-indazol-3-yl)-4-(4-(2-((2-(2,6-dioxopiperidin-3-yl)-1,3-dioxoisoindolin-5-yl)amino)-2-oxoethyl)piperazin-1-yl)-2-((tetrahydro-2H-pyran-4-yl)amino)benzamide]",41.1,–
> 80,"O=C1CCC(N2C(=O)c3ccc(C4CN(CCN5CCN(c6cccc(-c7cnc8ccc(N9CCC[C@@H]9c9cccc(F)c9)nn78)n6)CC5)C4)cc3C2=O)C(=O)N1 (stereo partly drawn) [TR-292, 2-(2,6-dioxopiperidin-3-yl)-5-(1-(2-(4-(6-(6-((R)-2-(3-fluorophenyl)pyrrolidin-1-yl)imidazo[1,2-b]pyridazin-3-yl)pyridin-2-yl)piperazin-1-yl)ethyl)azetidin-3-yl)isoindoline-1,3-dione]",8.2,–
> 80,"O=C1CCC(N2Cc3ccc(N4CC(CN5CCN(c6ccc(C(=O)Nc7n[nH]c8ccc(Cc9cc(F)cc(F)c9)cc78)c(NC7CCOCC7)c6)CC5)C4)cc3C2=O)C(=O)N1 (stereo not shown) [TR-318, N-(5-(3,5-difluorobenzyl)-1H-indazol-3-yl)-4-(4-((1-(2-(2,6-dioxopiperidin-3-yl)-3-oxoisoindolin-5-yl)azetidin-3-yl)methyl)piperazin-1-yl)-2-((tetrahydro-2H-pyran-4-yl)amino)benzamide]",2.4,–
> 80,"O=C1CCC(N2C(=O)c3ccc(CN4CCCC(N5CCN(c6ccc(C(=O)Nc7n[nH]c8ccc(Cc9cc(F)cc(F)c9)cc78)c(NC7CCOCC7)c6)CC5)C4)cc3C2=O)C(=O)N1 (stereo not shown) [TR-279, N-(5-(3,5-difluorobenzyl)-1H-indazol-3-yl)-4-(4-(1-((2-(2,6-dioxopiperidin-3-yl)-1,3-dioxoisoindolin-5-yl)methyl)piperidin-3-yl)piperazin-1-yl)-2-((tetrahydro-2H-pyran-4-yl)amino)benzamide]",19,–
